What follows are compounds tested against PIK3CA (human) (UniProt P42336) (assay: Cell-Based Assay). Conditions: mda-mb-361.
Sequence of PIK3CA (human) (P42336 whole entry, looked up): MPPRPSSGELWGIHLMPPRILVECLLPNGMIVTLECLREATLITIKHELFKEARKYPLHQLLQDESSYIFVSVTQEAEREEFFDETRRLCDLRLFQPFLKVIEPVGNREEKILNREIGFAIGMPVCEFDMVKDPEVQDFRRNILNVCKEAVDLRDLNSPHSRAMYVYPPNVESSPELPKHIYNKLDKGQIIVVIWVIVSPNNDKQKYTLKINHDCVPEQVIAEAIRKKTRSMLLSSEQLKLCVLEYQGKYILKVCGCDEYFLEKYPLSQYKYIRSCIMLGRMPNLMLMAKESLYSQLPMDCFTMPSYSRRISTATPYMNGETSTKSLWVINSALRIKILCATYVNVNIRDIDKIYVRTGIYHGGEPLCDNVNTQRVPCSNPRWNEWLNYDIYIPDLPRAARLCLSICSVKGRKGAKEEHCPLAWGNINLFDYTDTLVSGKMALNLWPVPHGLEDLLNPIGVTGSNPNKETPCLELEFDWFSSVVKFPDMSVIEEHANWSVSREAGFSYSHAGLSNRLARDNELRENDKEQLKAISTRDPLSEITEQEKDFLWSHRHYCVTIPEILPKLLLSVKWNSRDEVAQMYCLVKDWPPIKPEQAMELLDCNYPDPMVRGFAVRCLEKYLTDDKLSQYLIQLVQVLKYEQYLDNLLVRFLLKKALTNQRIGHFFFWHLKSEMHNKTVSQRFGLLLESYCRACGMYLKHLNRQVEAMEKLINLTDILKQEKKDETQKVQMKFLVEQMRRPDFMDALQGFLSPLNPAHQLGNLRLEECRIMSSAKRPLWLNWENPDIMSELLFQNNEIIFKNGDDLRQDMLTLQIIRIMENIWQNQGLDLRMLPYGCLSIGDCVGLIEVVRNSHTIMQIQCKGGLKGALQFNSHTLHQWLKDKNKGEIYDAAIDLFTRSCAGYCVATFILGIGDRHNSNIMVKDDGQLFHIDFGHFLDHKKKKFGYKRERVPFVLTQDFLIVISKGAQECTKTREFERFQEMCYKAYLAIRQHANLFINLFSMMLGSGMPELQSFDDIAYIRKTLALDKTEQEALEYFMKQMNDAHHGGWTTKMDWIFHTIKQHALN
CCOC(=O)N1CC=C(c2cnc3ccc(-c4ccc5oc(N)nc5c4)nc3n2)CC1 showed an IC50 of 0.1 to 1 µM. C[C@@H]1COCCN1c1cnc2ccc(-c3ccc4oc(N)nc4c3)nc2n1 gave an IC50 of 0.1 to 1 µM. C[C@@H]1CN(C2CN(c3cnc4ccc(-c5ccc6oc(N)nc6c5)nc4c3)C2)CCN1C gave an IC50 of 0.1 to 1 µM. With Nc1nc2cc(-c3ccc4ncc(N5CC(N6CCN(CC7CC7)CC6)C5)cc4n3)ccc2o1 the IC50 was 0.1 to 1 µM. For Nc1nc2cc(-c3ccc4ncc(-c5cccnc5)cc4n3)ccc2o1, the IC50 was over 10 µM. With CC(C)N1CCN(C2CN(c3cnc4ccc(-c5ccc6oc(N)nc6c5)nc4c3)C2)CC1 the IC50 was 0.1 to 1 µM. With Nc1nc2cc(-c3ccc4ncc(N5CCN(C(=O)C6(N)CC6)CC5)cc4n3)ccc2o1 the IC50 was 0.1 to 1 µM. Nc1nc2cc(-c3ccc4ncc(N5CCNC(=O)C5)nc4n3)ccc2o1 showed an IC50 of 0.1 to 1 µM. C[C@H]1COCCN1C1CN(c2cnc3ccc(-c4ccc5oc(N)nc5c4)nc3n2)C1 was tested, and the IC50 was over 10 µM. CC1(C)CN(C2CN(c3cnc4ccc(-c5ccc6oc(N)nc6c5)nc4n3)C2)CCN1 showed an IC50 of 0.1 to 1 µM. Work on CCOC(=O)N1CCN(c2cnc3ccc(-c4ccc5oc(N)nc5c4)nc3n2)CC1 yielded an IC50 of 0.1 to 1 µM. For Nc1nc2cc(-c3ccc4ncc(N5CC(N6CCN(CCO)CC6)C5)cc4n3)ccc2o1, the IC50 was 0.1 to 1 µM. C[C@H]1COCCN1c1cnc2ccc(-c3ccc4oc(N)nc4c3)nc2n1 gave an IC50 of 0.1 to 1 µM. Nc1nc2cc(-c3ccc4ncc(N5CCC(O)CC5)nc4n3)ccc2o1 gave an IC50 of 0.1 to 1 µM. CN1CCN(C2CN(c3cnc4ccc(-c5ccc6oc(N)nc6c5)nc4c3)C2)CC1=O showed an IC50 of 0.1 to 1 µM. For C[C@H]1CN(C2CN(c3cnc4ccc(-c5ccc6oc(N)nc6c5)nc4c3)C2)CCN1, the IC50 was 0.1 to 1 µM. For Nc1nc2cc(-c3ccc4ncc(N5C6CCC5COC6)nc4n3)ccc2o1, the IC50 was 0.1 to 1 µM. With CCOC(=O)N1CCN(c2cnc3ccc(-c4ccc5oc(N)nc5c4)nc3c2)CC1 the IC50 was 0.1 to 1 µM. In the case of Nc1nc2cc(-c3ccc4ncc(N5CC6CCC(C5)O6)cc4n3)ccc2o1, the IC50 is reported as 0.1 to 1 µM. In the case of CN1CCN(C2CN(c3cnc4ccc(-c5ccc6oc(N)nc6c5)nc4c3)C2)CC1, the IC50 is reported as 0.1 to 1 µM. In the case of CCN1CCN(C2CN(c3cnc4ccc(-c5ccc6oc(N)nc6c5)nc4c3)C2)CC1, the IC50 is reported as 0.1 to 1 µM. Nc1nc2cc(-c3ccc4ncc(N5CC6CCC(C5)O6)nc4n3)ccc2o1 gave an IC50 of 0.1 to 1 µM. CC(C)(N)C(=O)N1CCN(c2cnc3ccc(-c4ccc5oc(N)nc5c4)nc3c2)CC1 showed an IC50 of 0.1 to 1 µM. NCC(=O)N1CCN(c2cnc3ccc(-c4ccc5oc(N)nc5c4)nc3n2)CC1 gave an IC50 of over 10 µM. C[C@H]1CN(C2CN(c3cnc4ccc(-c5ccc6oc(N)nc6c5)nc4c3)C2)CCN1C showed an IC50 of 0.1 to 1 µM. Compound CC1(C)CN(C2CN(c3cnc4ccc(-c5ccc6oc(N)nc6c5)nc4c3)C2)CCN1 has an IC50 of 0.1 to 1 µM. Nc1nc2cc(-c3ccc4ncc(N5CCOCC5)nc4n3)ccc2o1 was tested, and the IC50 was 0.1 to 1 µM. Nc1nc2cc(-c3ccc4ncc(N5CC(N6CCNCC6)C5)nc4n3)ccc2o1 gave an IC50 of over 10 µM. C[C@@H]1CN(C2CN(c3cnc4ccc(-c5ccc6oc(N)nc6c5)nc4c3)C2)CCN1 showed an IC50 of 0.1 to 1 µM.

Same assay, conditions: pc3
In the case of C[C@@H]1CN(C2CN(C(=O)c3cnc4ccc(-c5ccc6oc(N)nc6c5)cn34)C2)CCN1C, the IC50 is reported as 0.1 to 1 µM. Work on C[C@H]1CN(C2CN(C(=O)c3cnc4ccc(-c5ccc6oc(N)nc6c5)cn34)C2)CCN1C yielded an IC50 of 0.1 to 1 µM. Compound Cn1c(=O)n(-c2ccc(C(C)(C)C#N)cc2)c2c3cc(-c4ccc5oc(N)nc5c4)ccc3ncc21 has an IC50 of under 0.1 µM. Nc1nc2cc(-c3ccc4ncc(C(=O)N5CC[C@H](n6cccn6)C5)n4c3)ccc2o1 gave an IC50 of 0.1 to 1 µM. For COc1ncc(-c2ccc3ncc(C(=O)N4CCOCC4)n3c2)cc1NS(=O)(=O)c1cccnc1, the IC50 was 0.1 to 1 µM. CN1CCC(N(C)C(=O)c2cnc3ccc(-c4ccc5oc(N)nc5c4)cn23)CC1 gave an IC50 of 0.1 to 1 µM. O=C(c1cnc2ccc(-c3cnc(Cl)c(NS(=O)(=O)c4ccccc4)c3)cn12)N1CCOCC1 was tested, and the IC50 was 0.1 to 1 µM. In the case of CS(=O)(=O)N1CCN(Cc2cc3nc(-c4ccc5oc(N)nc5c4)nc(N4CCOCC4)c3s2)CC1, the IC50 is reported as 0.1 to 1 µM. Work on CC(=O)Nc1cn2cc(-c3ccc4oc(N)nc4c3)ccc2n1 yielded an IC50 of under 0.1 µM. With O=C(c1cnc2ccc(-c3cnc(Cl)c(NS(=O)(=O)c4ccc(F)cc4)c3)cn12)N1CCOCC1 the IC50 was 0.1 to 1 µM. With COc1ncc(-c2ccc3ncn(C4CCN(C)CC4)c(=O)c3c2)cc1NS(=O)(=O)c1ccccc1 the IC50 was 0.1 to 1 µM. O=C(c1cnc2ccc(-c3cnc(Cl)c(NS(=O)(=O)c4cccc(F)c4)c3)cn12)N1CCOCC1 was tested, and the IC50 was 0.1 to 1 µM. COC1CN(C(=O)c2cnc3ccc(-c4ccc5oc(N)nc5c4)cn23)C1 was tested, and the IC50 was 0.1 to 1 µM. In the case of Nc1nc2cc(-c3ccc4ncc(C(=O)N5CC(F)(F)C5)n4c3)ccc2o1, the IC50 is reported as 0.1 to 1 µM. COc1ncc(-c2ccc3ncn(C4CCN(C(C)C)CC4)c(=O)c3c2)cc1NS(=O)(=O)c1ccccc1 was tested, and the IC50 was 0.1 to 1 µM.

Same assay, conditions: t47d
For CN1CCN(CCNc2cnc3ccc(-c4ccc5oc(N)nc5c4)cc3n2)CC1, the IC50 was 0.1 to 1 µM. C[C@@H]1CN(C(=O)C2CN(c3cnc4ccc(-c5ccc6oc(N)nc6c5)cc4n3)C2)CCN1 gave an IC50 of 0.1 to 1 µM. Work on CC(=O)N1CCC(N(C)c2ncnc3ccc(-c4ccc5oc(N)nc5c4)cc23)CC1 yielded an IC50 of 0.1 to 1 µM. Nc1nc2cc(-c3ccc4ncc(N5CCN(C(=O)CN6CCCC6)CC5)nc4c3)ccc2o1 gave an IC50 of 0.1 to 1 µM. Nc1nc2cc(-c3ccc4ncc(C(=O)N5CC[C@@H](O)C5)n4c3)ccc2o1 was tested, and the IC50 was 0.1 to 1 µM. Work on CCNC(=O)c1cnc2ccc(-c3ccc4oc(N)nc4c3)cn12 yielded an IC50 of 0.1 to 1 µM.

— the Kinase Knowledgebase extract (Sharma et al. 2016)
